Test results as given in US8466186B2, “Compounds” (Boehringer Ingelheim International GmbH, priority 2010, dated 2013).

Biological target: T1, recombinant human mPGES-1 (Homo sapiens, UniProt O14684)
T1 construct: made in house; host or cells: Rosetta E. coli (membrane/microsome fraction)
T1 sequence (O14684 1-152): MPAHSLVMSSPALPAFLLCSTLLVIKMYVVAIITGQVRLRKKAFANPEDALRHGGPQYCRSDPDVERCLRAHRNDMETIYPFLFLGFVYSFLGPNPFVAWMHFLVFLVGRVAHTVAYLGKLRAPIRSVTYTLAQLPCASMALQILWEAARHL
Test: Assay B: mPGES-1 enzyme assay (modified)
Format: biochemical
Conditions: biological assay B (modified); PGH2 final conc. 2 μM; read-out: mPGES-1 inhibitory effect IC50
Description: Assay B: mPGES-1 Enzyme Assay (Modified)
Microsomes from Rosetta E. coli bacteria expressing recombinant human mPGES-1 can be derived as described below:
Inoculate 5 ml LB with Ampicilin (50 μg/ml) and Chloramphenicol (34 μg/ml) with bacteria from freeze culture. Incubate 8 h at 37° C. with 200 rpm. Thereafter, inoculate 500-1000 ml LB containing Ampicilin and Chloramphenicol with the 5 ml on culture and grow to OD640 of 0.8-1.0. Chill the culture to +4° C. before induction. Induce the culture with IPTG at a final concentration of 400 μM. Express the protein at room temp 18-23° C. with 200 rpm shaking overnight.
The following steps can be performed on the following day: • 1. Spin down the cells in 250 ml centrifuge flasks for 15 min at 7000 rpm (Beckmann Coulte Avanti J-E centrifuge) • 2. Dissolve the pellet from 250 ml culture in 12.5 ml homogenization buffer • 3. (15 mM Tris-HCL pH8, 1 mM EDTA pH8, […], 2.5 mM GSH, 1 Tablet Protease inhibitor per 50 ml buffer) • 4. Disintegrate the cells by sonication, 5×10 seconds at 48% amplitude of a 750 W sonifier • 5. Add 2.5 ml MgCl2 (100 mM) and DNase 12.5 μl (0.8 mg/ml) and incubate on ice for 30 min • 6. Spin down the bacteria debris and save the supernatant, 7000 rpm for 15 min • 7. Isolate the protein containing membranes in the supernatant by ultracentrifugation 120000×g for 2 hour at 4° C. (Sorvall T880 rotor). • 8. Discard the supernatant and dissolve the pellet in 20 mM Potassium phosphate buffer pH7.4 (KH2PO4 and K2HPO4) buffer by sonication (5×10 s, 30% of a 50 W sonifier) and aliquot the enzyme and store aliquots at −80° C.
Before each experiment is performed an aliquot of the enzyme is thawed and it can then be dissolved in 0.1 M Potassium phosphate buffer pH7.4 (KH2PO4 and K2HPO4) buffer containing 2.5 mM GSH.
The aim of this assay is to determine the affinity of a test compound for the mPGES-1 enzyme.
47 μl of recombinant human mPGES-1 (˜0.5 μg protein/well) containing microsomal suspension in a buffer containing GSH, (2.5 mmol/L L-Glutathione reduced, dissolved in 0.1 mol/L Phosphat Buffer pH 7.4) is dispensed in a 384-well plate and thereafter 1 μl of the test compound(s) is/are added and incubated for 25 minutes at room temperature. The enzyme reaction is started by the addition of 2 ul PGH2 (final conc. 2 μM) dissolved in water-free Diglyme. After 60 seconds the reaction is terminated by addition of a stop solution containing FeCl2 (10 μL 0.074 mol/l FeCl2). The samples are diluted between 1:25 in PBS (Phosphate Buffered Saline). 10 μl of the diluted samples are transferred to 384-well low volume plate. In order to quantify the amount of PGE2 that has been formed, a homogenous time resolved fluorescent (HTRF) detecting of PGE2 has been performed using a commercially available kit from Cisbio according to the manufactures recommendation. This HTRF-based assay has been described in detail (see: Goedken et al., J Biomol Screen, 2008, 13(7), 619-625). Briefly, the diluted samples are mixed with 5 μl PGE2-d2 conjungate and 5 μl anti-PGE2 cryptate conjungate. After an incubation period of the plates overnight, the fluorescence is measured by the use of an appropriate microplate reader.
The fluorescence of Europium cryptate (maxex=307 nm, maxem=620 nm) and d2-PGE2 (maxex=620 nm, maxem=665 nm) are measured.
The extent of the specific HTRF is measured as a ratio of the emission intensity at 665 nm vs. that at 620 nm at an excitation puls of 320 nm. The quantification plate contains also wells with different concentrations of PGE2 as calibration curve for the calculation of the PGE2 concentrations from the HTRF ratio values.
From all mPGES enzyme assay the background is subtracted and the IC50 is calculated over a nonlinear regression with conventional software.

Compound | IC50 [nM]
Cn1c(Nc2c(F)ccc(CNC(=O)C(C)(C)C)c2F)nc2cc(Cl)c(N3CCC(C(F)(F)F)CC3)cc21 [Example 70, N-{2,4-Difluoro-3-[5-chloro-1-methyl-6-(4-trifluoromethyl-piperidin-1-yl)-1H-benzimidazol-2-ylamino]-benzyl}-2,2-dimethyl-propionamide] | 6.5
Cn1c(Nc2c(Cl)ccc(CNC(=O)C(C)(C)C)c2F)nc2cc(Cl)c(N3CCC(F)CC3)cc21 [Example 33, N-{2-Fluoro-4-chloro-3-[5-chloro-1-methyl-6-(4-fluoro-piperidin-1-yl)-1H-benzimidazol-2-ylamino]-benzyl}-2,2-dimethyl-propionamide] | 3
CC(C)(C)C(=O)NCc1ccc(Cl)c(Nc2nc3cc(Cl)c(N4CCCC(C(F)(F)F)C4)cc3[nH]2)c1Cl (stereo not drawn) [Example 52] | 2.2
CC(C)(C)C(=O)NCc1ccc(Cl)c(Nc2nc3cc(Cl)c(N4CCC(C(F)(F)F)CC4)cc3[nH]2)c1Cl [Example 40, N-{2,4-Dichloro-3-[5-chloro-6-(4-trifluoromethyl-piperidin-1-yl)-1H-benzimidazol-2-ylamino]-benzyl}-2,2-dimethyl-propionamide] | 5.7
Cn1c(Nc2cc(CNC(=O)C(C)(C)C(F)(F)F)ccc2Cl)nc2cc(Cl)c(N3CCN(c4ccc(C(F)(F)F)cc4)CC3)cc21 [Example 98] | 6.5
Cn1c(Nc2c(Cl)ccc(CNC(=O)OC(C)(C)C)c2Cl)nc2cc(Cl)c(N3CCCC(C(F)(F)F)C3)cc21 (stereo not drawn) [Example 51] | 23
Cn1c(Nc2cc(CNC(=O)C3(C(F)(F)F)CC3)ccc2Cl)nc2cc(Cl)c(N3CCN(CC(F)(F)F)CC3)cc21 [Example 92] | 39

Further compounds by falling IC50, results first:

IC50 [nM] | Compound
174 | Cn1c(Nc2cc(CNC(=O)C(C)(C)C)ccc2Cl)nc2cc(N3CCC(C(F)(F)F)CC3)ccc21 [Example 12]
9 | CC(C)(C)C(=O)NCc1ccc(Cl)c(Nc2nc3cc(Cl)c(N4CCC(F)CC4)cc3[nH]2)c1F [Example 48]
7.8 | CN(CC(C)(C)O)c1cc2c(cc1Cl)nc(Nc1c(Cl)ccc(CNC(=O)C(C)(C)C)c1F)n2C [Example 37]
5 | CC(C)(C)C(=O)NCc1ccc(Cl)c(Nc2nc3cc(C(F)(F)F)c(N4CCC(C(F)(F)F)CC4)cc3[nH]2)c1Cl [Example 61, N-{2,4-Dichloro-3-[5-trifluoromethyl-6-(4-trifluoromethyl-piperidin-1-yl)-1H-benzimidazol-2-ylamino]benzyl}-2,2-dimethyl-propionamide]
5 | CC(C)(C)C(=O)NCc1ccc(Cl)c(Nc2nc3cc(C#N)c(N4CCC(C(F)(F)F)CC4)cc3[nH]2)c1Cl [Example 131]
3.5 | Cn1c(Nc2c(Cl)ccc(CNC(=O)C(C)(C)C)c2Cl)nc2cc(Cl)c(N3CCCC(C(F)(F)F)C3)cc21 (stereo not drawn) [Example 53]
3.1 | Cn1c(Nc2cc(CNC(=O)C(C)(C)C(F)(F)F)ccc2Cl)nc2cc(Cl)c(N3CCC(c4ccccc4)CC3)cc21 [Example 97]
2 | Cn1c(Nc2c(Cl)ccc(CNC(=O)C(C)(C)C)c2Cl)nc2cc(Cl)c(N3CCC(C(F)(F)F)C3)cc21 (stereo not drawn) [Example 59]
